Measured values reported in patent US11083735B2, “Methods for treating sleep disorders, sleep disturbances, and related symptoms using aminosterol compositions” (Enterin, Inc., priority 2017, dated 2021).

Columns and labels:
[1] = system: isolated colons; test: Isolated perfused colon, migrating muscular contractions (aged mouse; loperamide in young mouse)
Excerpt: Isolated colons were mounted in an apparatus that permits continuous perfusion through the lumen, and the monitoring of the velocity, frequency and pressure of migrating muscular contractions (MMCs). Similar to the experience in humans, aging in mice is associated with diminished colonic peristaltic activity.
In humans, opiates markedly diminish GI motility and suppress fluid secretion causing constipation. […] When loperamide is introduced into the lumen of a young mouse colonic peristalsis is inhibited. When squalamine is added in presence of continued loperamide perfusion, the dysmotility is overridden.

[2] = system: colons from PD mice; test: Isolated colon motility, PD mice (human αSynuclein gene); set-up: species or system mouse
Excerpt: Parkinson's disease is associated with varying degrees of constipation, typically beginning decades before diagnosis, and all too often has a profound negative impact on quality of life. It is believed that the ENS in PD is damaged earlier but by the same processes that damage the neurons of the CNS. In our clinical experience oral administration to several individuals with advanced Parkinson's disease corrected long standing constipation within days of initiation of treatment. We explored whether the human experience could be reproduced in the mouse. In the experiments illustrated below studies of colonic motility were conducted using organs from WT (1 yr old FVB/NJ) or PD mice, in which the murine αSynuclein gene has been excised and replaced by several copies of the human αSynuclein gene driven by the normal murine promoter.
The isolated colon from the PD strain presents a more sluggish peristaltic wave than that from the WT animal (black columns).

[3] = system: patients with PD and constipation; test: Phase 2 trial Stage 2 (daily dosing): bowel function, stool related indices; format: in vivo, human; details: for response rate: Stage 2 daily dosing
Excerpt: (2) Rome-IV Criteria for Constipation (7 criteria, with constipation diagnosis requiring two or more of the following: (i) straining during at least 25% of defecations, (ii) lumpy or hard stools in at least 25% of defecations, (iii) sensation of incomplete evacuation for at least 25% of defecations, (iv) sensation of anorectal obstruction/blockage for at least 25% of defecations; (v) manual maneuvers to facilitate at least 25% of defecations; (vi) fewer than 3 defecations per week; and (vii) loose stools are rarely present without the use of laxatives;
(3) Constipation—Ease of Evacuation Scale (from 1-7, with 7=incontinent, 4=normal, and 1=manual disimpaction);
(4) Bristol Stool Chart, which is a patient-friendly means of categorizing stool characteristics (assessment of stool consistency is a validated surrogate of intestinal motility) and Stool Diary;
(14) Patient Assessment of Constipation Symptoms (PAC-SYM);
(15) Patient Assessment of Constipation Quality of Life (PAC-QOL);
In Stage 2, 34 patients were evaluated.
The primary efficacy outcome variable was whether or not a subject was a “success” or “failure”. This is an endpoint based on subject diary entries for the “fixed dose” period prior to the endpoint assessment defined as average complete stool frequency increase by 1 or more over baseline, or 3 or more complete spontaneous stools/week. The subject was deemed a “success” if s/he met one or more of the criteria listed above, otherwise the subject was deemed a “failure”. The primary analysis was based on all subjects with a baseline assessment and an assessment at the end of the “fixed-dose” period and was a comparison of the proportion of successes with 0.10 (the null hypothesis corresponding to no treatment effect).
The proportion of subjects for whom the drug was a success was estimated with a binomial point estimate and corresponding 95% confidence interval. A secondary analysis compared the proportions of subjects who are deemed a success at the end of the randomized fixed-dose period between those randomized to the squalamine (ENT-01) arm and those randomized to the placebo arm. A Fisher's exact test was used to compare the proportions of subjects who were deemed a success at the end of randomization period between the two randomized arms.

CC(C)[C@@H](CC[C@@H](C)[C@H]1CC[C@H]2[C@@H]3[C@H](O)C[C@H]4C[C@@H](NCCCNCCCCN)CC[C@]4(C)[C@H]3CC[C@]12C)OS(=O)(=O)O [squalamine]
colonic peristalsis ([1]; squalamine into the colonic lumen of the aged mouse): dramatic stimulation of peristalsis | dysmotility caused by loperamide ([1]; young mouse colon, squalamine added in presence of continued loperamide perfusion): overridden | speed of the colonic peristaltic wave ([2]; FIG. 14B): normalizing the PD colon to that of the unstimulated WT mouse | force of peristaltic contractions ([2]; squalamine added to lumen, FIG. 14A): increases the force of contractions

CC(C)[C@@H](CC[C@@H](C)[C@H]1CC[C@H]2[C@@H]3[C@H](O)C[C@H]4C[C@@H](NCCCNCCCCN)CC[C@]4(C)[C@H]3CC[C@]12C)OS(=O)(=O)O (single isomer, unassigned; ent-01) [ENT-01]
Median efficacious dose ([3]; Stage 2): 100 mg | CSBM, Fixed dose (mean, SD) ([3]; Stage 2, Table 12, baseline 1.2 (0.90)): 3.8 | PAQ-SYM, Fixed dose (Mean, SD) ([3]; Stage 2, Table 12, baseline 1.3 (0.45)): 1.1 | PAQ-QOL, Fixed dose (Mean, SD) ([3]; Stage 2, Table 12, baseline 1.4 (0.49)): 1.2 | Rescue meds, Fixed dose (Mean, SD) ([3]; Stage 2, Table 12, baseline 1.8 (1.92)): 0.3 | SBM, Fixed dose (mean, SD) ([3]; Stage 2, Table 12, baseline 2.6 (1.45)): 4.5 | Consistency, Fixed dose (mean, SD) ([3]; Stage 2, Table 12, baseline 2.7 (1.20)): 4.1 | Ease, Fixed dose (Mean, SD) ([3]; Stage 2, Table 12, baseline 3.2 (0.73)): 3.7 | PAC-SYM, Fixed dose (mean, SD) ([3]; Stage 2, dosed patients n = 34, baseline 1.3 (0.45)): 1.1 (0.49) | PAC-QOL total, Fixed dose (mean, SD) ([3]; Stage 2, dosed patients n = 34, baseline 1.4 (0.49)): 1.2 (0.59) | CSBM, Fixed dose (mean, SD) ([3]; Stage 2, dosed patients n = 34, weekly average, baseline 1.2 (0.90)): 3.8 (2.40) | Suppository use, Fixed dose (mean, SD) ([3]; Stage 2, dosed patients n = 34, weekly average, baseline 1.8 (1.92)): 0.3 (0.67) | SBM, Fixed dose (mean, SD) ([3]; Stage 2, dosed patients n = 34, weekly average, baseline 2.6 (1.45)): 4.5 (2.21) | Consistency, Fixed dose (mean, SD) ([3]; Stage 2, n = 34, Bristol stool scale 1-7, 1 = separate hard lumps, 7 = liquid consistency, baseline 2.7 (1.20)): 4.1 (2.13) | Ease of passage, Fixed dose (mean, SD) ([3]; Stage 2, n = 34, Ease of evacuation scale, 1-manual disimpaction, 7 = incontinent, baseline 3.2 (0.73)): 3.7 (1.19) | CSBM, Wash-out (Mean, SD) ([3]; Stage 2, wash-out period, baseline 1.2 (0.90)): 1.8 (1.19) | PAQ-SYM, Wash-out (Mean, SD) ([3]; Stage 2, wash-out period, baseline 1.3 (0.45)): 1.1 (0.60) | PAQ-QOL, Wash-out (Mean, SD) ([3]; Stage 2, wash-out period, baseline 1.4 (0.49)): 1.2 (0.63) | Rescue meds, Wash-out (Mean, SD) ([3]; Stage 2, wash-out period, baseline 1.8 (1.92)): 1.0 (1.40) | SBM, Wash-out (Mean, SD) ([3]; Stage 2, wash-out period, baseline 2.6 (1.45)): 3.2 (1.80) | Consistency, Wash-out (Mean, SD) ([3]; Stage 2, wash-out period, baseline 2.7 (1.20)): 2.8 (1.39) | Ease, Wash-out (Mean, SD) ([3]; Stage 2, wash-out period, baseline 3.2 (0.73)): 3.3 (0.81) | response rate ([3]; 75 mg): 26% | response rate ([3]; 250 mg): 85.3% | Average CSBM/week ([3]; at fixed dose, baseline 1.2): 3.8 | Use of rescue medication ([3]; at fixed dose, baseline 1.8/week): 0.3 /week | SBM ([3]; at fixed dose, baseline 2.6): 4.5 | CSBM frequency ([3]; beyond the treatment period (wash-out)): remained significantly above baseline value | Subjective indices of wellbeing (PAC-QOL) ([3]; during treatment): improved | constipation symptoms (PAC-SYM) ([3]; during treatment): improved | CSBM/week ([3]; patients later randomized to Placebo (n = 9), Fixed dose period on drug, Baseline 1.6): 3.3 | dose for a bowel response, mean ([3]; patients with baseline constipation of <1 CSBM/week): 192 mg | dose for a bowel response, mean ([3]; patients with ≥1 CSBM/week at baseline): 120 mg | CSBM/week ([3]; randomized cohort, Treatment (n = 6), Fixed dose, Baseline 0.8): 3.2 | CSBM/week ([3]; randomized cohort, Treatment (n = 6), Randomized period): 2.4 | CSBM/week ([3]; randomized cohort, Treatment (n = 6), Washout): 0.9 | Consistency based on the Bristol stool scale, mean ([3]; treatment, from 2.7): 4.1 | ease of passage ([3]; treatment, from 3.2): 3.7 | patients responding ([3]; within 75 mg to 250 mg): 85%
